# Test results reported in publication PMC10606834, “Is the Neuropeptide PEN a Ligand of GPR83?” (International Journal of Molecular Sciences, 2023).
# Experiments:
# [1] = tested on: GPR83 and deletion variant GPR83del (untagged or HA-tagged, U2OS clones); test: Intracellular calcium mobilization, U2OS cells; format: cell-based, human; settings: 10 µM PEN, controls co mix or 50 µM ionomycin, traces over 60 s, ligand added 10 s after start of recording, Fluo4-AM, duplicate, repeated at least two times
# Description: As activation of many GPCRs is coupled to calcium mobilization from intracellular stores, GPR83 was probed for ligand-dependent calcium release. Wild-type HEK293 cells and HEK293 clones overexpressing either full-length GPR83 or the N-terminal deletion variant GPR83del were exposed to buffer or one of two independent synthesis batches (PEN #1 and PEN #2) of the neuropeptide PEN, while calcium indicator fluorescence was recorded. […] Calcium release was also tested in a second cell line, osteosarcoma U2OS cells, using various stably expressing clones. […] Therefore, HEK293 cells transfected with Gα16 were employed to investigate a potential GPR83-dependent calcium mobilization with PEN. […] A number of GPCRs show ligand-independent basal calcium activity. […]
# Figure 2 Investigation of ligand-dependent and ligand-independent intracellular calcium mobilization. […] (B) Calcium indicator fluorescence intensity traces over 60 s of various U2OS cell clones overexpressing untagged or HA-tagged GPR83 or the deletion variant GPR83del before and after the addition of buffer or ligand (co mix as in (A) or 50 µM ionomycin or 10 µM PEN). […]
# Cells were seeded at 50,000 cells/well in a poly-D-lysine coated 96-well black well/clear bottom plate (BD Falcon, Franklin Lakes, NJ, USA) and cultured overnight. […] Fluorescence data were generated in duplicate, and experiments were repeated at least two times.
# [2] = tested on: GPR83 and GPR83del (HEK293 and U2OS clones; wild-type cells as comparison); test: Ligand-dependent cAMP formation; format: cell-based, human
# Description: Production of cyclic adenosine monophosphate (cAMP) is a hallmark of GPCRs signaling via the Gs-induced pathway. To investigate the potential of PEN to stimulate cAMP production mediated by GPR83, levels of the second messenger were determined after incubation with PEN of various GPR83-overexpressing clones as well as wild-type HEK293 and U2OS cells.
# Figure 3 Analysis of ligand-dependent, GPR83-mediated cAMP production. (A) Wild-type HEK293 and U2OS cells as well as various clones with confirmed overexpression of either GPR83 or the deletion variant GPR83del (both ± HA tag) were incubated with either buffer, 1 µM PEN, or 50 µM forskolin. (B) Selected GPR83-overexpressing HEK293 clones were assayed for cAMP production using different concentrations of PEN. (C) Selected GPR83-overexpressing U2OS clones were assayed for cAMP production using different concentrations of PEN.
# To measure intracellular cAMP production, the LANCE Ultra cAMP kit (Perkin Elmer) was used according to the manufacturer’s instructions. The day before the experiment, cells were seeded onto a 96-well plate with approximately 80% confluence. After 16–24 h, the medium was removed, and 100 μL/well of serum-free medium was added, followed by a 3 h incubation. Thereafter, medium was removed, and 40 μL of ligand dissolved in cAMP stimulation buffer was pipetted onto cells, then incubated for 10 min. The ligands used were pipetted in duplicate. For concentration–response curves, serial dilutions were carried out from the stock solutions of 1 mM to create a concentration range from 1 µM to 30 pM. As controls, 4 wells were treated with buffer only (negative control) and 4 wells with 50 μM forskolin (positive control). After a 10 min incubation, 10 μL of a 0.5% Triton-X 100 solution in PBS was added to each well. To lyse cells, the plate was shaken on a Vibramax 100 Shaker (Heidolph, Kelheim, Germany) (750 rpm) at room temperature for 10 min. A 10 μL volume of the cell lysates were transferred into a white 384 well plate (ProxiPlate, PerkinElmer). A 5 μL volume of the Europium-cAMP tracer (1 to 50 dilution of Eu-tracer stock in cAMP detection buffer) was added to each well. Next, 5 μL of the ULight-anti-cAMP solution (1 to 150 dilution of ULight-tracer stock in cAMP detection buffer) was added to each well. After a 1 h incubation period at room temperature in the dark, the TR-FRET signal was measured using an EnVision 2103 Multilabel Reader (Perkin Elmer).
sequence,measurement,setting,value
"AADHDVGSELPPEGVLGALLRV [PEN, batch #1 synthesized, batch #2 purchased from Phoenix Pharmaceuticals]",enhancement of calcium indicator fluorescence,[1],PEN did not
same,cAMP levels,"[2]; 1 µM PEN or 50 µM forskolin, GPR83-overexpressing clones and wild-type HEK293 and U2OS cells, 10 min incubation, LANCE Ultra cAMP kit, TR-FRET competition, duplicate",did not change it
same,"cAMP formation, concentration-response","[2]; titration 50 pM to 1 µM, selected GPR83-expressing HEK293 and U2OS clones, LANCE Ultra cAMP kit, TR-FRET, 10 min incubation, duplicate",did not indicate PEN-dependent cAMP formation
same,increased (via Gs) or decreased (via Gi) production of cAMP,"[2]; up to 1 µM PEN, multiple clones of GPR83-overexpressing HEK293 and U2OS cells",did not reveal any evidence for an increased (via Gs) or decreased (via Gi) production of cAMP
